In data set [1] the test system is L-687414-induced hyperlocomotion in mice. Description: L-687414-induced locomotion test in mice. The class given is in vivo.
The target of data set [2] is T1, mouse TAAR1 (Mus musculus, UniProt Q923Y8).
T1 construct: expressed in transfected cells
Description: In vitro functional activity (cAMP assay) at mouse TAAR1 receptor in recombinant HEK293 cells. The class given is cell-based. As for the experimental part: In Vitro Functional Activity of TAAR1 Agonists at Mouse TAAR1 Receptor
Recombinant HEK293 cells expressing the mouse TAAR1 were grown at 37° C. and 5% CO2/95% air in 250 ml Falcon culture flasks in 30 ml culture medium. The cell culture medium contained DMEM high glucose, fetal calf serum (10%, heat inactivated for 30 min at 56° C.), geneticin G418 (500 μg/ml), and penicillin/streptomycin (1%). Cells were harvested when 80-90% confluent. Then culture medium was then removed from the culture flasks, cells washed once with 5 ml of PBS. After removing the wash solution, 5 ml of trypsin/EDTA solution were added for 5 min at 37° C. Afterwards, 45 ml of culture medium was added to the 5 ml detached cell solution and the total 50 ml transferred into a 50 ml Falcon tube (ref: 2070), the tube was centrifuged at 1300 rpm for 3 min at RT and the culture medium removed. The cell pellet was resuspended in fresh culture medium and brought to 5×10 E5 cells per milliliter. Then the cells were plated in 96-well Plate (BIOCOAT 6640 from Becton Dickinson) with a multipipette (100 μl/well, 50 000 cells/well) and incubated 20 h at 37° C.
The cell culture medium was removed and the cells washed once with PBS. 50 μl of PBS (AMIMED Endotoxine free: 8-05F00-1) with 1 mM IBMX were added and the cells allowed to incubate for 30 min at 37° C. and 5% CO2/95% air. Then 50 μl of a (e.g.) 20 μM compound solution or 50 μl of a 50% beta-PEA stimulation concentration in PBS (AMIMED Endotoxine free) with 1 mM IBMX were added and the cells incubated for 30 min at 37° C. as above again. After the incubation the cells were lysed with 50 μl of the 3× Detection Mix solution containing Ru-cAMP, Alexa700-cAMP Ab and lysis buffer for at least 60 min (better 2 h) at RT under strong shaking. The fluorescence is measured on the NanoScan (10M reader) (Ex. 456 nm, Em. 630 & 700 nm).
Efficacy values (% eff.) are relative to phenylethylamine having 100% agonistic activity.
In general terms: Changes in cAMP serve as a functional read-out for many G protein-coupled receptors.

Data set [3] in a line: Oral glucose tolerance test (oGTT) in male C57Bl6 mice. Format: in vivo, male C57BL/6J mice. The conditions noted are these: 0.3 and 1 mg/kg p.o., vs vehicle. As for the experimental part: An oral glucose tolerance test (oGTT) was performed in C57Bl6 mice to address potential anti-diabetic effects of TAAR1 agonists. Male C57BL/6J mice (Charles River Laboratories, Lyon, France) were stratified into groups of 8 mice according to body weight. The evening before the animals received 1 g food, this corresponds to a fasting period of about 10 hours. At the experiment day the animals were treated with TAAR1 agonists or placebo (0.3% Tween 80) 45 minutes prior to an oral glucose challenge of 2 g/kg. The main readout was blood glucose measured with Accu-Chek Aviva. In parallel blood samples were taken for insulin determination.

A short description of data set [4]: 14-day treatment in rats: body weight gain, fat mass (MR relaxometry), food intake.
Description: Along with body weight measurement, magnetic resonance (MR) relaxometry was employed to determine, in a noninvasive manner, fat mass composition in the animals.
Data set [5] relates to cocaine-induced hyperlocomotor activity in mice. Description: Cocaine-induced locomotion test in mice. Format: in vivo.
Where [6] appears, read: 14 days, 1 mg/kg p.o., vs vehicle.
[7] abbreviates: 14 days, 3 and 10 mg/kg p.o., vs vehicle.

Entries after “also recorded” stand apart in the source; their conditions may differ.

The EC50 is the concentration that produces a half-maximal response.

T1 sequence (Q923Y8 whole entry): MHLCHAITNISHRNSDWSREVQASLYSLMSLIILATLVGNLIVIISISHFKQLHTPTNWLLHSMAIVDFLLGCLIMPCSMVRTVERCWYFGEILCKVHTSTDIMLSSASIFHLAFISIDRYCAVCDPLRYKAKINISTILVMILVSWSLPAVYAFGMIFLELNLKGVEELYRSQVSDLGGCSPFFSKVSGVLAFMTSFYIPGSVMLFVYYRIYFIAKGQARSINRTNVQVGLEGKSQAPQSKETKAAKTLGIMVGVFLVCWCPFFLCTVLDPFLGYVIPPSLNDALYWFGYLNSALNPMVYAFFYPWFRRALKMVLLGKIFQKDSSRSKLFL

As to `Cc1c(F)cccc1[C@H]1COC(N)=N1` [Example S2, (S)-4-(3-fluoro-2-methyl-phenyl)-4,5-dihydro-oxazol-2-ylamine], the L-687414-induced hyperlocomotion entry in data set [1] (acute, 0.00003-1 mg/kg p.o.) was “dose-dependently antagonized; also recorded: fully antagonized”. In data set [1] (alone, 0.001 mg/kg p.o.), the L-687414-induced locomotor activity result is recorded as “partially active”. The Emax in data set [2] (HEK293, relative to phenylethylamine having 100% agonistic activity, read-out: % efficacy) amounted to 65%. In data set [2] (HEK293 cells expressing mouse TAAR1, cAMP assay, read-out: EC50), the EC50 amounted to 1.8 nM. In addition, the “glucose AUC (0-60 min) during oGTT” value in data set [3] is on record as “markedly lowered”. Also, the “insulin AUC (0-60 min) during oGTT” value in data set [3] is “markedly lowered”. Also, the fat mass result in data set [4] (setting [6]) is reported as “No significant effect”; in data set [4] (setting [7]), “reduced”. The food intake entry was “No significant effect” in data set [4] (setting [6]); “significant reduction” in data set [4] (14 days, 10 mg/kg); “reduced” in data set [4] (setting [7]). For the same molecule, the weight gain result in data set [4] (14 days, 1 mg/kg p.o., vs vehicle, 1 mg/kg) is “No significant effect and not”; in data set [4] (setting [7]) it was “reduced”. In addition, in data set [4] (14 days, 3 and 10 mg/kg p.o.), the “weight loss compared to pre-treatment values” is “without inducing weight loss”. Moreover, the “Cumulative food intake ± SEM” value in data set [4] (Study 1, 3 mg/kg) is recorded as 233.8 ± 7.4 g; in data set [4] (Study 1, 10 mg/kg), 217.0 ± 7.3 g; in data set [4] (Study 2, 1 mg/kg), 248.8 ± 5.0 g. In addition, the cocaine-induced hyperlocomotor activity entry in data set [5] (1 and 3 mg/kg p.o.) is “significantly antagonized”; in data set [5] (tested alone, 0.3 mg/kg p.o., 0.3 mg/kg), “partially active; also recorded: partially antagonized”. In addition, in data set [5] (doses that antagonized cocaine (1 and 3 mg/kg p.o.)), the “effects on baseline locomotor activity” value is on record as “modest effects”.

The values are drawn from patent publication US9132136B2, “Pharmaceutical combination” (HOFFMANN-LA ROCHE INC., priority 2010, dated 2015).
